Source: paper PMC3265452 (PLoS Neglected Tropical Diseases, 2012)
Structures can show the parent of a compound that is named as a salt.

Target: AaDOP2 (Aedes aegypti, UniProt H6D5H2)
Test: AaDOP2 antagonist screen of the LOPAC1280 library (HEK-CRELuc-Aadop2 cells, luminescence)
Type: cell-based
Conditions: not given

AaDOP2, sequence (H6D5H2 1-476): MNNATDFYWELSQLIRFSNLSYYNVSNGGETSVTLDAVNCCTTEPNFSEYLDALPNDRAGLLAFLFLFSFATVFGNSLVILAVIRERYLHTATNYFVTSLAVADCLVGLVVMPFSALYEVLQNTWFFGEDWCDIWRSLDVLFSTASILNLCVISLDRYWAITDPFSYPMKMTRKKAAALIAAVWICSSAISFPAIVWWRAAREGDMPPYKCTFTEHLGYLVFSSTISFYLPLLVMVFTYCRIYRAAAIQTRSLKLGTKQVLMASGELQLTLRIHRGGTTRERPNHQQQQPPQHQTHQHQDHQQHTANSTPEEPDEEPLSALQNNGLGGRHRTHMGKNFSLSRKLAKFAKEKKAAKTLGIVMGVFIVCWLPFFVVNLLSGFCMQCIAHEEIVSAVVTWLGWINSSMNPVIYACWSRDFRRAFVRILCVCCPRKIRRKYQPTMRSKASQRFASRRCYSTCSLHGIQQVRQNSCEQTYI

| Compound | Compound effect (percent receptor signaling in presence of test compound, relative lux units relative to the SCH23390 control) |
| --- | --- |
| CC1=C(/C=C/C(C)=C/C=C/C(C)=C\C(=O)O)C(C)(C)CCC1 [Compound 1045, 13-cis-retinoic acid] | 72 |
| O=c1c2ccccc2nc2n1CCc1c-2[nH]c2ccccc12 [Compound 1046, Rutaecarpine] | 78 |
| CCCN(CCC)CCc1cccc2c1CC(=O)N2 [Compound 1047, Ropinirole hydrochloride] | 103 |
| CCCCCC(O)c1cccc(OCc2ccc3ccccc3n2)c1 (centres unmarked) [Compound 1049, REV 5901] | 103 |
| CC(=O)c1c(O)c(C)c(O)c(Cc2c(O)c3c(c(C(=O)/C=C/c4ccccc4)c2O)OC(C)(C)C=C3)c1O [Compound 1050, Rottlerin] | 35 |
| COc1ccccc1OCC(O)CN1CCN(CC(=O)Nc2c(C)cccc2C)CC1 (centres unmarked) [Compound 1051, Ranolazine dihydrochloride] | 100 |
| COc1ccc(C2CNC(=O)C2)cc1OC1CCCC1 (centres unmarked) [Compound 1052, Rolipram] | 118 |
| CC[C@H](CO)Nc1nc(NCc2ccccc2)c2ncn(C(C)C)c2n1 [Compound 1055, Roscovitine] | 28 |
| C=C(C)[C@H]1Cc2c(ccc3c2O[C@@H]2COc4cc(OC)c(OC)cc4[C@@H]2C3=O)O1 [Compound 1056, Rotenone] | 41 |
| NC(=O)c1ccc(OCC(O)CN2CC=C(c3ccc(F)cc3)CC2)cc1 (centres unmarked) [Compound 1057, Ro 8-4304] | 115 |
| NC(=O)c1ncn([C@@H]2O[C@H](CO)[C@@H](O)[C@H]2O)n1 [Compound 1059, Ribavirin] | 119 |
| CNC(=C[N+](=O)[O-])NCCSCc1ccc(CN(C)C)o1 [Compound 1060, Ranitidine hydrochloride] | 106 |
| Cc1nc2sccn2c(=O)c1CCN1CCC(=C(c2ccc(F)cc2)c2ccc(F)cc2)CC1 [Compound 1061, Ritanserin] | 18 |
| COC(=O)[C@H]1[C@H]2C[C@H]3c4[nH]c5ccccc5c4CCN3C[C@H]2CC[C@@H]1O [Compound 1062, Rauwolscine hydrochloride] | 87 |
| O=C(c1cc(O)c(O)c([N+](=O)[O-])c1)c1ccccc1F [Compound 1065, Ro 41-0960] | 88 |
| Nc1c(S(=O)(=O)O)cc(Nc2ccc(Nc3nc(Cl)nc(Nc4cccc(S(=O)(=O)O)c4)n3)c(S(=O)(=O)O)c2)c2c1C(=O)c1ccccc1C2=O [Compound 1066, Reactive Blue 2] | 93 |

Same assay, conditions: 10 µM compound, 300 nM dopamine, 2 hr; hit = compound effect <20

| Compound | Compound effect (percent receptor signaling in presence of test compound, relative lux units relative to the SCH23390 control) [%] |
| --- | --- |
| C[C@@H](CN1CCC(Cc2ccccc2)CC1)[C@@H](O)c1ccc(O)cc1.Cl [Compound 1053, Ro 25-6981 hydrochloride] | 70 |
| CC(C)C[C@H](NP(=O)([O-])O[C@H]1O[C@H](C)[C@@H](O)[C@H](O)[C@@H]1O)C(=O)N[C@@H](Cc1c[nH]c2ccccc12)C(=O)[O-].[Na+].[Na+] [Compound 1054, Phosphoramidon disodium] | 104 |
| COC1(C2=NCCN2)COc2ccccc2O1.Cl (centres unmarked) [Compound 1058, RX 821002 hydrochloride] | 121 |

Same assay, conditions: read-out: % of the SCH23390 effect (percent inhibition of receptor response relative to the SCH23390 control)

| Compound | inhibition at 10 µM [%] |
| --- | --- |
| Cc1nc2sccn2c(=O)c1CCN1CCC(=C(c2ccc(F)cc2)c2ccc(F)cc2)CC1 [Compound 1061, Ritanserin] | 83 |
